Test results published in patent publication US20140193802A1, “IDENTIFICATION OF AN ALTERED THERAPEUTIC SUSCEPTIBILITY TO ANTI-HCMV COMPOUNDS AND OF A RESISTANCE AGAINST ANTI-HCMV COMPOUNDS” (priority 2012, published 2014).
Where “and” joins values, the source holds several entries; their conditions need not be identical. Equal values may be shown once. Read-outs that look alike come from different tables or passages of the source.

What was measured:
Format in all cases: cell-based, human cytomegalovirus (HCMV)
RV-HG UL56-L241P/R369S = assay: GFP-RA, marker transfer mutant; conditions: for EC50: Human betaherpesvirus 5, RV-HG UL56-L241P/R369S, fluorescence reduction assay, mean ± SD, read-out: EC50
Protocol: (§1) HCMV Fluorescence Reduction Assay (GFP-RA)
(§2) The susceptibilities of recombinant HCMV laboratory strains expressing GFP were determined by a GFP-based fluorescence reduction assay. For standard assays, 1.5×10^4 NHDF cells/well were cultured in black 96-well plates (Greiner Bio-One, Germany) and infected with either HCMV-GFP (MOI, 0.1) or RV-HG (MOI, 0.2 to 0.5). After virus adsorption, the virus inoculum was replaced with 200 μl fresh medium. Thereafter, 100 μl medium containing the test compounds was added to wells of horizontal row G, followed by serial 3-fold dilutions up to row A. All drug concentrations were tested at least in duplicate. Wells of the horizontal row H served as the virus control. Plates were incubated at 37° C. for 7 days. The medium was replaced by 200 μl PBS, and GFP units (GFPU) were determined by a charge-coupled-device-camera-based fluorescence detector (FluoBox; Bayer Technology Services GmbH, Leverkusen, Germany), which captures 96 images simultaneously. Drug effects were calculated as a percentage of reduction in GFPU in the presence of each drug concentration compared to the GFPU determined in the absence of drug. EC50 and EC90 values (drug concentrations producing 50% and 90% reduction in GFPU) were calculated using nonlinear regression curve fit with a variable slope. GraphPad Prism 3.02 or 4.0 software (GraphPad Software Inc., La Jolla, Calif.) was used for all analyses.
(§3) The HCMV AD169-derived bacterial artificial chromosome (BAC) pHG served as the backbone for the construction of the mutant viruses. The markerless introduction of point mutations into pHG was done using a two-step recombination protocol according to the en passant method. Briefly, a recombination fragment containing the I-SceI-AphAI cassette from plasmid pEPKan-S was obtained by PCR using primers containing ˜60 bp of homology to the intended integration site in ORF UL56 of BAC pHG and ˜20 bp specific for pEPKan-S. This fragment was electroporated into Escherichia coli GS1783 that harbored the pHG BAC. […] After successful kanamycin selection, all non-HCMV sequences were removed by an intrabacterial ISceI digest and a subsequent second Red recombination, resulting in the scarless repair of the mutated UL56 gene in the background of BAC pHG. The integrity of the generated BACs was confirmed by restriction enzyme digestion and sequencing. To reconstitute virus mutants, the recombinant BACs were transfected into permissive MRC5 cells. At least two independent virus clones per mutation were generated and evaluated.

RV-HG UL56-V231L = assay: GFP-RA, marker transfer mutant; conditions: for EC50: Human betaherpesvirus 5, RV-HG UL56-V231L, fluorescence reduction assay, mean ± SD, read-out: EC50
Protocol: as §1, §2, §3

RV-HG UL56-R369S = assay: GFP-RA, marker transfer mutant; conditions: for EC50: Human betaherpesvirus 5, RV-HG UL56-R369S, fluorescence reduction assay, mean ± SD, read-out: EC50
Protocol: as §1, §2, §3

RV-HG UL56-V236M = assay: GFP-RA, marker transfer mutant; conditions: for EC50: Human betaherpesvirus 5
Protocol: as §1, §2, §3

RV-HG UL56-R369M = assay: GFP-RA, marker transfer mutant; conditions: for EC50: Human betaherpesvirus 5, RV-HG UL56-R369M, fluorescence reduction assay, mean ± SD, read-out: EC50
Protocol: as §1, §2, §3

RV-HG UL56-C325Y = assay: GFP-RA, marker transfer mutant; conditions: for EC50: Human betaherpesvirus 5
Protocol: as §1, §2, §3

RV-HG UL56-L241P = assay: GFP-RA, marker transfer mutant; conditions: for EC50: Human betaherpesvirus 5
Protocol: as §1, §2, §3

HCMV strain AD169 = assay: HCMV cytopathic effect reduction assay (CPE-RA); conditions: Human betaherpesvirus 5, mean ± SD
Protocol: HCMV Cytopathic Effect Reduction Assay (CPE-RA)
CPE-RAs were performed basically as described elsewhere (HCMV replication assay). In brief, the addition of 2 μl test compound of 50, 5, 0.5, 0.05, 0.005, and 0.0005 mM DMSO stock solutions to 100 μl cell culture medium in duplicate was followed by serial 2-fold dilutions in 96-well microtiter plates. Each well was supplemented with 150 μl of either a suspension of 1×10^4 NHDF cells mixed with cell-free HCMV (multiplicity of infection (MOI), 0.03) or a suspension of 1×10^4 to 3×10^4 HCMV-infected and uninfected NHDF cells (MOI, 0.001 to 0.002). Non-infected and non-treated cells served as controls on each plate. Final compound concentrations ranged between 250 and 0.00005 μM. Plates were incubated for 6 to 7 days at 37° C. or until the virus control reached 100% CPE. A mixture containing 20% Giemsa stain (Merck) and 5% formalin solution (Merck) was added to the wells for fixation and staining. After extensive washing, plates were dried at 56° C. followed by visual evaluation using an overhead microscope (plaque magnifier; Tecnorama Zürich). Each assay was performed at least in triplicate, and standard deviations were calculated. The assay plate data were used to calculate the EC50 (CPE-RA), i.e., the concentration of drug that inhibits the CPE by 50% compared with an untreated virus-infected control.

## Nc1nc(O)c2ncn(COC(CO)CO)c2n1 [Ganciclovir]
RV-HG UL56-L241P/R369S
  EC50: 2860 ± 1160 nM
RV-HG UL56-V231L
  EC50: 720 ± 240 nM
RV-HG UL56-R369S
  EC50: 1960 ± 1090 nM
RV-HG UL56-V236M
  EC50: 1560 ± 330 nM
RV-HG UL56-R369M
  EC50: 1260 ± 640 nM
RV-HG UL56-C325Y
  EC50: 2110 ± 710 nM
RV-HG UL56-L241P
  EC50: 2110 ± 770 nM
HCMV strain AD169
  EC50: 3400 ± 1500 nM

## COc1cccc(N2CCN(C3=Nc4c(F)cccc4[C@H](CC(=O)O)N3c3cc(C(F)(F)F)ccc3OC)CC2)c1 [Letermovir, (S)-{8-fluoro-2-[4-(3-methoxyphenyl)-1-piperazinyl]-3-[2-methoxy-5-(trifluoromethyl)phenyl]-3,4-dihydro-4-quinazolinyl}acetic acid]
RV-HG UL56-L241P/R369S
  EC50: 5260 nM
RV-HG UL56-L241P/R369S; RV-HG UL56-L241P/R369S vs RV-HG wt
  Resistance index (RI) = EC50 indicated RV-HG mutant/EC50 RV-HG wt: 1776
RV-HG UL56-V231L
  EC50: 20 ± 4.7 nM
RV-HG UL56-V231L; RV-HG UL56-V231L vs RV-HG wt
  Resistance index (RI) = EC50 indicated RV-HG mutant/EC50 RV-HG wt: 5
RV-HG UL56-R369S
  EC50: 140 ± 70 nM
RV-HG UL56-R369S; RV-HG UL56-R369S vs RV-HG wt
  Resistance index (RI) = EC50 indicated RV-HG mutant/EC50 RV-HG wt: ~38 and 48
RV-HG UL56-V236M; RV-HG UL56-V236M, fluorescence reduction assay, mean ± SD, read-out: EC50
  EC50: 70 ± 20 nM
RV-HG UL56-V236M; RV-HG UL56-V236M vs RV-HG wt
  Resistance index (RI) = EC50 indicated RV-HG mutant/EC50 RV-HG wt: 24
RV-HG UL56-R369M
  EC50: 40 ± 15 nM
RV-HG UL56-R369M; RV-HG UL56-R369M vs RV-HG wt
  Resistance index (RI) = EC50 indicated RV-HG mutant/EC50 RV-HG wt: 13
RV-HG UL56-C325Y; RV-HG UL56-C325Y, fluorescence reduction assay, mean ± SD, read-out: EC50
  EC50: 26400 ± 8500 nM
RV-HG UL56-C325Y; RV-HG UL56-C325Y vs RV-HG wt
  Resistance index (RI) = EC50 indicated RV-HG mutant/EC50 RV-HG wt: 8910
RV-HG UL56-L241P; RV-HG UL56-L241P, fluorescence reduction assay, mean ± SD, read-out: EC50
  EC50: 680 ± 240 nM
RV-HG UL56-L241P; RV-HG UL56-L241P vs RV-HG wt
  Resistance index (RI) = EC50 indicated RV-HG mutant/EC50 RV-HG wt: ~160 and 221
HCMV strain AD169
  EC50: 5.6 ± 1.6 nM
